Patent publication US20060111288A1, “Peripheral benzodiazepine receptor independent superoxide generation” (priority 2004, published 2006)

How the values were obtained:
[1] = system: HL60 leukaemia cells; assay: Mitochondrial membrane potential depolarisation (DiOC6(3) fluorescence, flow cytometry); type: cell-based, human
Experimental: (§1) HL60 promyelocytic leukaemia, Jurkat T cell leukaemia cells lacking the PBR,(18) (19) (kindly provided by Dr D. E. Banker and Dr F. Applebaum, The Fred Hutchinson Cancer Research Center, USA), and BV173 leukaemia cells were maintained in exponential suspension cultures in PPMI 1640 medium supplemented with 10% fetal calf serum, 5 mM glutamine, 100 μg/ml streptomycin and 100 U/ml penicillin. Cells were grown in a humidified atmosphere of 5% CO2/95% air at 37° C. PK11195 was dissolved in ethanol at a stock concentration of 8.7 mg/ml, and added to cells at a 75 μM final concentration for 4 hours; vehicle alone was also used in medium.
(§2) A Becton Dickinson FACScan (Oxford) was used to acquire 10,000 events using forward and scatter detectors with logarithmic amplification. Lymphoid enriched gates were defined. Corresponding DiOC6(3) or CMH2DCFDA fluorescence was analysed using the FL1 (530 nm) band pass filter. Propidium iodide or ethidium fluorescence were analysed using the FL3 (620 nm) band pass filter. List mode Data was analysed using WINMDI 2.8. Fluorescence microscopy was performed using a Zeiss Axioskop four colour florescence microscope with digital capture via a computer running IPLab Spectrum software.
(§3) Cells were incubated for 20 minutes at 37° C. in the dark with the cationic lipophillic (amphipathic) probe DiOC6(3) (80 nM), then counter stained for 10 minutes with propidium iodide (20 μg/ml). DiOC6(3) is sequestered within the mitochondrial matrix due to the inner membrane potential (ΔΨm), according to the Nernst equation, dissipation leading to a reduction in mitochondrial retention and decreased cellular DiOC6(3) fluorescence. Collapse of ΔΨm was prevented by incubating cells for 30 minutes with 50 μM bongkrekic acid. Events with increased propidium iodide fluorescence were subtracted, by gating, from the DiOC6(3) histograms to eliminate dead cells, with loss of plasma membrane integrity. Dose-response curves used the calculating the proportion of DiOC6(3) low cells as the dependent variable on the ordinate. To measure MPT directly, cells were incubated with 1 μM calcein AM for 30 minutes, followed by 1 mM […]. Cobalt quenches calcein fluorescence, but cannot traverse an intact inner mitochondrial membrane to enter the mitochondrial matrix, to which calcein equilibrates. Opening of the PTPC allows cobalt to enter, reducing calcein fluorescence.

[2] = system: leukaemia cells; assay: Superoxide generation (dihydroethidium to ethidium fluorescence); type: cell-based
Experimental: as §2
(§4) O2^−· was detected by incubating cells for 15 minutes in 5 μM dihydroethidium, which is oxidized to ethidium. To test the effect of O2^−· […] on O2^−· generation, cells were treated with 100 μM MnTBAP for 45 minutes. Hydrogen peroxide was detected by loading cells for 30 minutes with 5 μM CM-H2DCFDA, and its formation inhibited by preincubation with 500 U/ml catalase for 30 minutes (21). Dose-response curves for CM-H2DCFDA used the calculated proportion of CM-H2DCFDA high cells as the dependent variable.

[3] = system: primary chronic lymphatic leukaemia cells; assay: Apoptosis induction in primary leukaemia cells; type: cell-based; details: primary chronic lymphatic leukaemia cells (higher NADPH oxidase than normal cells)
[4] = system: peripheral benzodiazepine receptor (PBR); details: references 1, 2; cited from earlier work
[5] = system: DoHH2 cells; assay: Apoptosis induction in the presence and absence of the ROS scavenger MnTBAP; type: cell-based; details: 24, 48, 72 hr, 1000 micromolar MPTP, 100 micromolar PK11195, 50 micromolar HA14-1, FIG. 5
Experimental: DoHH2 cells, a lymphoma cell line, were treated with MPTP, PK11195 and HA14-1 in the presence and absence of MnTBAP, a scavenger of ROS. […] MnTBAP inhibited MPTP-induced and PK11195-induced apoptosis, but not apoptosis induced by HA14-1. The three columns in each lane represent three time courses (L to R: 24 hr, 48 hr and 72 hr). […] The induction of apoptosis at the same time points as a result of treatment with 1000 micromolar MPTP is shown in lane “1000”.
The blockade of MPTP induction of apoptosis by MnTBAP parallels that of PK11195.
DoHH2 cells, a lymphoma cell line with high levels of the […] protein Bcl-2 due to a translocation between chromosome 14 and 18 (where the Bcl-2 gene is located), were exposed to MPTP, PK11195 and HA 14-1 in the presence and absence of the mitochondrial ROS scavenger, MnTBAP.

[6] = system: HL60 cells; assay: Hydrogen peroxide generation (CMH2DCF fluorescence); type: cell-based, human
Experimental: as §2, §4

[7] = system: normal, non-malignant lymphocytes; assay: Apoptosis induction in normal lymphocytes; type: cell-based
[8] = system: BV173 leukaemia cells; assay: Hydrogen peroxide generation (CMH2DCF fluorescence) in PBR-positive cells; type: cell-based; details: PBR expressed, FIG. 3
Experimental: as §1, with “medium. O2^−· was detected by incubating cells for 15 minutes in 5 μM dihydroethidium, which is oxidized to ethidium. […] Hydrogen peroxide was detected by loading cells for 30 minutes with 5 μM CM-H2DCFDA, and its formation inhibited by preincubation with 500 U/ml catalase for 30 minutes (21). Dose-response curves for CM-H2DCFDA used the calculated proportion of CM-H2DCFDA high cells as the dependent variable.” for “medium.”

[9] = system: HL60 leukaemia cells; assay: Direct measurement of MPT by calcein/cobalt quenching; type: cell-based, human; details: calcein AM plus cobalt, FIG. 1D/1E
Experimental: as §3

[10] = system: Jurkat T cell leukaemia cells; assay: Hydrogen peroxide generation (CMH2DCF fluorescence) in PBR-negative cells; type: cell-based; details: PBR not expressed, FIG. 3
Experimental: as §1, with “medium. O2^−· was detected by incubating cells for 15 minutes in 5 μM dihydroethidium, which is oxidized to ethidium. […] Hydrogen peroxide was detected by loading cells for 30 minutes with 5 μM CM-H2DCFDA, and its formation inhibited by preincubation with 500 U/ml catalase for 30 minutes (21). Dose-response curves for CM-H2DCFDA used the calculated proportion of CM-H2DCFDA high cells as the dependent variable.” for “medium.”

O=C(O)c1ccc(C2=C3C=CC(=N3)C(c3ccc(C(=O)O)cc3)=c3ccc([nH]3)=C(c3ccc(C(=O)O)cc3)c3ccc([n-]3)C(c3ccc(C(=O)O)cc3)c3ccc2[n-]3)cc1.[Cl-].[Mn+3] (centres unmarked) [MnTBAP, Manganese (III) tetrakis (4-benzoic acid) porphyrin chloride]
effect on rate of PK11195 induced mitochondrial depolarisation (rate of reduction of DiOC6(3) fluorescence) ([1]; presence vs absence of MnTBAP, FIG. 4C): Reduction in the rate of inner mitochondrial membrane depolarisation | effect on PK11195 induced increase in ethidium fluorescence ([2]; 100 μM MnTBAP, FIG. 4B): inhibited

CO[C@H](C/C=C\C=C\CC/C=C/C[C@H](C)/C=C/C(=C\C(=O)O)CC(=O)O)/C(C)=C\C=C(/C)C(=O)O [BA, Bongkrekic acid]
effect of inhibitor on PK11195 mediated mitochondrial depolarisation ([1]; pre-treatment with 50 μM bongkrekic acid for 30 minutes, FIG. 1C): prevented

CCC(C)N(C)C(=O)c1cc2ccccc2c(-c2ccccc2Cl)n1 (centres unmarked) [PK11195, 1-(2-chlorophenyl)-N-methyl-N-methyl-N-(1-methylpropyl)-isoquinoline carboxamide]
induction of apoptosis [3]: induces apoptosis | binding affinity to the PBR [4]: nanomolar | effect of MnTBAP on apoptosis induced by the compound [5]: inhibited | concentration range in which CMH2DCF fluorescence increased ([6]; HL60 cells, concentration dependent, FIG. 2A): 50 to 100 µM | induction of apoptosis [7]: does not do so | CMH2DCF fluorescence (generation of H202) [8]: increase in CMH2DCF fluorescence | time until reduction in DiOC6(3) fluorescence is detectable ([1]; PK11195 treated): ≤ 3 h | DiOC6(3) fluorescence (collapse of mitochondrial ΔΨm) ([1]; PK11195 treated vs control, FIG. 1A/1B): reduction in DiOC6(3) fluorescence | mitochondrial calcein fluorescence (MPT, open PTPCs) [9]: quenched | ethidium fluorescence (O2−· generation) ([2]; following PK11195 treatment vs control, FIG. 4A): early increase in ethidium fluorescence | CMH2DCF fluorescence (generation of H202) [10]: increase in CMH2DCF fluorescence

CCOC(=O)C1=C(N)Oc2ccc(Br)cc2C1C(C#N)C(=O)OCC (centres unmarked) [HA14-1]
effect of MnTBAP on apoptosis induced by the compound [5]: not blocked

CN1CC=C(c2ccccc2)CC1 [MPTP, 1-methyl-4-phenyl-1,2,3,6-tefrahydropyridine]
effect of MnTBAP on apoptosis induced by the compound [5]: inhibited

catalase
effect on PK11195 induced increase in CMH2DCF fluorescence ([6]; HL60 cells preincubated with catalase 500 U/ml, FIG. 2B): inhibited
